According to the NIST ThermoML archive (doi:10.1016/j.jct.2013.09.024):
Numbers after ± are expanded uncertainties.

Experiments:
[1] = Liquid, Vibrating tube method
[2] = xn = mol fraction of the nth substance listed; conditions: Liquid, Vibrating tube method, x2 = 0

CC1(C)C(=O)[C@]2(C)CC[C@H]1C2 [(-)-fenchone]
mass density [kg/m3], [1]
Conditions | 101 kPa | 20000 kPa | 25000 kPa | 30000 kPa | 35000 kPa | 40000 kPa
283.15 K | 953.27 ± 0.12 | 965.6 ± 1 | 968.5 ± 1 | 971.3 ± 1 | 974 ± 1 | 976.6 ± 1
298.15 K | 940.67 ± 0.12 | 954 ± 1 | 957.1 ± 1 | 960 ± 1 | 962.9 ± 1 | 965.7 ± 1
313.15 K | 928.04 ± 0.12 | 942.3 ± 1 | 945.6 ± 1 | 948.7 ± 1 | 951.8 ± 1 | 954.7 ± 1
328.15 K | 915.39 ± 0.13 | 930.8 ± 1 | 934.2 ± 1 | 937.6 ± 1 | 940.9 ± 1 | 944 ± 1

CCO [ethanol]
mass density [kg/m3], [1]
Conditions | 101 kPa | 20000 kPa | 25000 kPa | 30000 kPa | 35000 kPa | 40000 kPa
283.15 K | 797.99 ± 0.13 | 813.3 ± 1 | 816.8 ± 1 | 820.2 ± 1 | 823.4 ± 1.1 | 826.6 ± 1.1
298.15 K | 785.2 ± 0.13 | 801.7 ± 1 | 805.4 ± 1 | 809 ± 1.1 | 812.5 ± 1.1 | 815.8 ± 1.1
313.15 K | 772.15 ± 0.14 | 790.1 ± 1 | 794.1 ± 1 | 797.8 ± 1.1 | 801.5 ± 1.1 | 805 ± 1.1
328.15 K | 758.71 ± 0.14 | 778.1 ± 1 | 782.4 ± 1.1 | 786.4 ± 1.1 | 790.3 ± 1.1 | 794.1 ± 1.1

CCO [ethanol] + CC1(C)C(=O)[C@]2(C)CC[C@H]1C2
mass density [kg/m3], [2]
Conditions | 101 kPa | 20000 kPa | 25000 kPa | 30000 kPa | 35000 kPa | 40000 kPa
283.15 K | 797.99 ± 0.13 | 813.3 ± 1 | 816.8 ± 1 | 820.2 ± 1 | 823.4 ± 1.1 | 826.6 ± 1.1
298.15 K | 785.2 ± 0.13 | 801.7 ± 1 | 805.4 ± 1 | 809 ± 1.1 | 812.5 ± 1.1 | 815.8 ± 1.1
313.15 K | 772.15 ± 0.14 | 790.1 ± 1 | 794.1 ± 1 | 797.8 ± 1.1 | 801.5 ± 1.1 | 805 ± 1.1
328.15 K | 758.71 ± 0.14 | 778.1 ± 1 | 782.4 ± 1.1 | 786.4 ± 1.1 | 790.3 ± 1.1 | 794.1 ± 1.1
